The values that follow come from patent US7799824B2, “Quaternary salt CCR2 antagonists” (OraPharma, Inc., priority 2004, dated 2010).

The target of the assay is T1, CCR2 (Homo sapiens, UniProt P41597).
T1 sequence (P41597 1-360 isoform P41597-2): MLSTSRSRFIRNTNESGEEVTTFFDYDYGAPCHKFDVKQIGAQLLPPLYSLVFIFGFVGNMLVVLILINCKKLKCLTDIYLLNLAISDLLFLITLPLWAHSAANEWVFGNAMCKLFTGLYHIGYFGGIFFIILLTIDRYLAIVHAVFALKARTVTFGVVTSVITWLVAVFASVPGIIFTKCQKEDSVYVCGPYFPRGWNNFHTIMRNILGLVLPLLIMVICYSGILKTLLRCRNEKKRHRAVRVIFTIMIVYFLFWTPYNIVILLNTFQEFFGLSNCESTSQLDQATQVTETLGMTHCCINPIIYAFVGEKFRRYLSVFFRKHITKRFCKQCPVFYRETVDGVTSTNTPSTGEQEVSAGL
The assay can be described thus: MCP-1 Receptor Binding Assay in THP-1 Cells. Particulars: for IC50: THP-1 cells, 0.5 nM 125I labeled MCP-1, 2 hours at 30° C., read-out: Mean Ligand Binding IC50 (inhibition of MCP-1 binding to CCR2); for inhibition at 25 µM: MCP-1 binding to CCR2, test concentration of 25 μM, unless indicated otherwise, read-out: % Inhibition Ligand Binding. In outline:
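THP-1 cells; bound radioactivity collected on filter plates and counted by scintillation. Buffer-only blanks subtracted, drug-treated values compared with vehicle; nonspecific binding defined with 1 μM unlabeled MCP-1.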

`Cc1cc(Cl)cc2c1OCC(C(=O)Nc1ccc(C[N+](C)(C)C3CCOCC3)cc1)=C2` [Cpd 115, {4-[(6-chloro-8-methyl-2H-chromene-3-carbonyl)-amino]-benzyl}-dimethyl-(tetrahydro-pyran-4-yl)-ammonium iodide]: the IC50 was 50 nM.
In the case of `C[N+](C)(Cc1ccc(NC(=O)C2=Cc3ccc(Cl)c(Cl)c3OC2)cc1)C1CCCCC1` [Cpd 116, cyclohexyl-{4-[(7,8-dichloro-2H-chromene-3-carbonyl)-amino]-benzyl}-dimethyl-ammonium iodide], the IC50 is 600 nM.
On the same count and under the same terms, for `Cc1cc(Cl)cc2c1OCC(C(=O)Nc1ccc(C[N+](C)(C)C3CC4CCC3C4)cc1)=C2` (centres unmarked) [Cpd 117, bicyclo[2.2.1]hept-2-yl-{4-[(6-chloro-8-methyl-2H-chromene-3-carbonyl)-amino]-benzyl}-dimethyl-ammonium iodide] the value was 120 nM.
As to `Cc1cc(Cl)cc2c1OCC(C(=O)Nc1ccc(C[N+](C)(C)C3CCCCCC3)cc1)=C2` [Cpd 118, {4-[(6-chloro-8-methyl-2H-chromene-3-carbonyl)-amino]-benzyl}-cycloheptyl-dimethyl-ammonium iodide], the IC50 was determined as 200 nM.
With `Cc1cc(Cl)cc2c1OCC(C(=O)Nc1ccc(C[N+](C)(C)C3CCCC3)cc1)=C2` [Cpd 119, {4-[(6-chloro-8-methyl-2H-chromene-3-carbonyl)-amino]-benzyl}-cyclopentyl-dimethyl-ammonium iodide], the IC50 came out at 100 nM.
As for `Cc1cc(Cl)cc2c1OCC(C(=O)Nc1ccc(C[N+](C)(C)C3CCSC3)cc1)=C2` (centres unmarked) [Cpd 120, {4-[(6-chloro-8-methyl-2H-chromene-3-carbonyl)-amino]-benzyl}-dimethyl-(tetrahydro-thiophen-3-yl)-ammonium iodide], the IC50 turned out to be 30 nM.
For `Cc1cc(Cl)cc2c1OCC(C(=O)NCc1ccc(C[N+](C)(C)C3CCOCC3)cc1)=C2` [Cpd 121, (4-{[(6-chloro-8-methyl-2H-chromene-3-carbonyl)-amino]-methyl}-benzyl)-dimethyl-(tetrahydro-pyran-4-yl)-ammonium iodide], the inhibition at 25 µM amounted to 37%.
With `C[N+](C)(Cc1ccc(NC(=O)C2=Cc3cc(Cl)cc(Cl)c3OC2)cc1)C1CCSC1` (centres unmarked) [Cpd 122, {4-[(6,8-dichloro-2H-chromene-3-carbonyl)-amino]-benzyl}-dimethyl-(tetrahydro-thiophen-3-yl)-ammonium iodide], the IC50 was determined as 580 nM.
In the case of `C[N+](C)(Cc1ccc(NC(=O)C2=Cc3cc(F)ccc3OC2)cc1)C1CCCCC1` [Cpd 123, cyclohexyl-{4-[(6-fluoro-2H-chromene-3-carbonyl)-amino]-benzyl}-dimethyl-ammonium iodide], the inhibition at 25 µM was 100%.
Turning to `C[N+](C)(Cc1ccc(NC(=O)C2=Cc3c(F)cccc3OC2)cc1)C1CCCCC1` [Cpd 124, cyclohexyl-{4-[(5-fluoro-2H-chromene-3-carbonyl)-amino]-benzyl}-dimethyl-ammonium iodide], the inhibition at 25 µM was found to be 100%.
As for `C[N+](C)(Cc1ccc(NC(=O)C2=Cc3cc(C(F)(F)F)ccc3OC2)cc1)C1CCCCC1` [Cpd 125, cyclohexyl-dimethyl-{4-[(6-trifluoromethyl-2H-chromene-3-carbonyl)-amino]-benzyl}-ammonium iodide], the inhibition at 25 µM stood at 100%.
On to `C[N+](C)(Cc1ccc(NC(=O)C2=Cc3cccc(F)c3OC2)cc1)C1CCCCC1` [Cpd 126, cyclohexyl-{4-[(8-fluoro-2H-chromene-3-carbonyl)-amino]-benzyl}-dimethyl-ammonium iodide], for which the IC50 was 910 nM.
Turning to `Cc1ccc2c(c1)OCC(C(=O)Nc1ccc(C[N+](C)(C)C3CCCCC3)cc1)=C2` [Cpd 127, cyclohexyl-dimethyl-{4-[(7-methyl-2H-chromene-3-carbonyl)-amino]-benzyl}-ammonium iodide], the IC50 amounted to 80 nM.
Same read-out and setting: for `COc1ccc2c(c1)OCC(C(=O)Nc1ccc(C[N+](C)(C)C3CCCCC3)cc1)=C2` [Cpd 128, cyclohexyl-{4-[(7-methoxy-2H-chromene-3-carbonyl)-amino]-benzyl}-dimethyl-ammonium iodide] the value was 600 nM; for `CC(C)(C)c1ccc2c(c1)C=C(C(=O)Nc1ccc(C[N+](C)(C)C3CCCCC3)cc1)CO2` [Cpd 129, {4-[(6-tert-butyl-2H-chromene-3-carbonyl)-amino]-benzyl}-cyclohexyl-dimethyl-ammonium iodide], 150 nM; for `C[N+](C)(Cc1ccc(NC(=O)C2=Cc3cc(C(F)(F)F)ccc3OC2)cc1)C1CCSC1` (centres unmarked) [Cpd 130, dimethyl-(tetrahydro-thiophen-3-yl)-{4-[(6-trifluoromethyl-2H-chromene-3-carbonyl)-amino]-benzyl}-ammonium iodide], 300 nM.
Regarding `C[N+](C)(Cc1ccc(NC(=O)C2=Cc3cccc(C(F)(F)F)c3OC2)cc1)C1CCCCC1` [Cpd 134, cyclohexyl-dimethyl-{4-[(8-trifluoromethyl-2H-chromene-3-carbonyl)-amino]-benzyl}-ammonium iodide], the IC50 turned out to be 470 nM.
As to `C[N+](C)(Cc1ccc(NC(=O)C2=Cc3c(ccc4ccccc34)OC2)cc1)C1CCOCC1` [Cpd 135, {4-[(3H-benzo[f]chromene-2-carbonyl)-amino]-benzyl}-dimethyl-(tetrahydro-pyran-4-yl)-ammonium iodide], the 50% inhibitory concentration (IC50) was found to be 910 nM.
Consider `C[N+]1(Cc2ccc(NC(=O)C3=Cc4c(ccc5ccccc45)OC3)cc2)CCCC1` [Cpd 136, 1-{4-[(3H-benzo[f]chromene-2-carbonyl)-amino]-benzyl}-1-methyl-pyrrolidinium iodide], for which the IC50 amounted to 4600 nM.
On to `C[N+](C)(Cc1ccc(NC(=O)C2=Cc3c(ccc4ccccc34)OC2)cc1)C1CCCCC1` [Cpd 137, {4-[(3H-benzo[f]chromene-2-carbonyl)-amino]-benzyl}-cyclohexyl-dimethyl-ammonium iodide], for which the IC50 is 80 nM.
Regarding `C[N+](C)(Cc1ccc(NC(=O)C2=Cc3c(ccc4ccccc34)OC2)cc1)C1CCSCC1` [Cpd 138, {4-[(3H-benzo[f]chromene-2-carbonyl)-amino]-benzyl}-dimethyl-(tetrahydro-thiopyran-4-yl)-ammonium iodide], the IC50 came out at 2400 nM.
For the molecule `C[N+]1(Cc2ccc(NC(=O)C3=Cc4c(ccc5ccccc45)OC3)cc2)CCOCC1` [Cpd 139, 4-{4-[(3H-benzo[f]chromene-2-carbonyl)-amino]-benzyl}-4-methyl-morpholin-4-ium iodide], the IC50 worked out at 9800 nM.
Regarding `C[N+](C)(Cc1ccc(NC(=O)C2=Cc3c(ccc4ccccc34)OC2)cc1)CC1CCOCC1` [Cpd 140, {4-[(3H-benzo[f]chromene-2-carbonyl)-amino]-benzyl}-dimethyl-(tetrahydro-pyran-4-ylmethyl)-ammonium iodide], the IC50 worked out at 1000 nM.
In the case of `C[N+](C)(Cc1ccc(CNC(=O)C2=Cc3c(ccc4ccccc34)OC2)cc1)C1CCOCC1` [Cpd 141, (4-{[(3H-benzo[f]chromene-2-carbonyl)-amino]-methyl}-benzyl)-dimethyl-(tetrahydro-pyran-4-yl)-ammonium iodide], the inhibition at 25 µM is -21%.
With `C[N+](C)(Cc1ccc(CNC(=O)C2=Cc3cc(Br)ccc3CCC2)cc1)C1CCOCC1` [Cpd 142, (4-{[(3-bromo-8,9-dihydro-7H-benzocycloheptene-6-carbonyl)-amino]-methyl}-benzyl)-dimethyl-(tetrahydro-pyran-4-yl)-ammonium iodide], the inhibition at 25 µM is -18%.
Turning to `C[N+](C)(Cc1ccc(NC(=O)C2=Cc3cc(Br)ccc3CCC2)cc1)C1CCOCC1` [Cpd 143, {4-[(3-bromo-8,9-dihydro-7H-benzocycloheptene-6-carbonyl)-amino]-benzyl}-dimethyl-(tetrahydro-pyran-4-yl)-ammonium iodide], the IC50 came to 7 nM.
Turning to `C[N+](C)(Cc1ccc(NC(=O)C2=Cc3cc(Br)ccc3CCC2)cc1)C1CCCCC1` [Cpd 144, {4-[(3-bromo-8,9-dihydro-7H-benzocycloheptene-6-carbonyl)-amino]-benzyl}-cyclohexyl-dimethyl-ammonium iodide], the IC50 came out at 330 nM.
On to `C[N+]1(Cc2ccc(NC(=O)C3=Cc4ccccc4CCC3)cc2)CCCC1` [Cpd 145, 1-{4-[(8,9-dihydro-7H-benzocycloheptene-6-carbonyl)-amino]-benzyl}-1-methyl-pyrrolidinium iodide], for which the inhibition at 25 µM turned out to be 36%.
For the molecule `C[N+](C)(Cc1ccc(NC(=O)C2=Cc3ccccc3CCC2)cc1)C1CCCCC1` [Cpd 146, cyclohexyl-{4-[(8,9-dihydro-7H-benzocycloheptene-6-carbonyl)-amino]-benzyl}-dimethyl-ammonium iodide], the IC50 amounted to 710 nM.
`C[N+](C)(Cc1ccc(NC(=O)C2=Cc3ccccc3CCC2)cc1)C1CCOCC1` [Cpd 147, {4-[(8,9-dihydro-7H-benzocycloheptene-6-carbonyl)-amino]-benzyl}-dimethyl-(tetrahydro-pyran-4-yl)-ammonium iodide]: the IC50 was determined as 1200 nM.
Turning to `C[N+](C)(Cc1ccc(CNC(=O)C2=Cc3ccccc3CCC2)cc1)C1CCOCC1` [Cpd 148, (4-{[(8,9-dihydro-7H-benzocycloheptene-6-carbonyl)-amino]-methyl}-benzyl)-dimethyl-(tetrahydro-pyran-4-yl)-ammonium iodide], the inhibition at 25 µM came out at 7%.
For the molecule `Cc1oc(-c2ccccc2)cc1C(=O)NCc1ccc(C[N+](C)(C)C2CCOCC2)cc1` [Cpd 149, dimethyl-(4-{[(2-methyl-5-phenyl-furan-3-carbonyl)-amino]-methyl}-benzyl)-(tetrahydro-pyran-4-yl)-ammonium iodide], the inhibition at 25 µM was 58%.
